Data set [1] relates to T1, L-asparaginase from Streptomyces brollosae NEAE-115.
T1 construct: gene L-asparagine amidohydrolase
The note with it: 0.05 M Tris-HCl, pH 8.6, 37 °C (standard assay); 1-10 mM substrate.

Substrate in the data set “purified protein”: NC(=O)C[C@H](N)C(=O)O
Kind of data set: purified protein. The note with it: 0.05 M Tris-HCl, pH 8.6, 37 °C (standard assay), 1-10 mM substrate.

As to `NC(=O)C[C@H](N)C(=O)O` [L-asparagine], in data set [1], the Km stood at 2140 µM.

B1: commercially available L-asparaginase from E. coli (Escherichia coli K-12) (protein)
chain: LPNITILATGGTIAGGGDSATKSNYTVGKVGVENLVNAVPQLKDIANVKGEQVVNIGSQDMNDNVWLTLAKKINTDCDKTDGFVITHGTDTMEETAYFLDLTVKCDKPVVMVGAMRPSTSMSADGPFNLYNAVVTAADKASANRGVLVVMNDTVLDGRDVTKTNTTDVATFKSVNYGPLGYIHNGKIDYQRTPARKHTSDTPFDVSKLNELPKVGIVYNYANASDLPAKALVDAGYDGIVSAGVGNGNLYKSVFDTLATAAKTGTAVVRSSRVPTGATTQDAEVDDAKYGFVASGTLNPQKARVLLQLALTQTKDPQQIQQIFNQY
Consider B1, for which the Km in the data set “purified protein” turned out to be 176 µM.

A word on the Km: it is the substrate concentration at which the rate is half of its maximum.
